Ends that are not written are not given here.
What follows are sequences tested on PK-8 cells (assay: Cytotoxicity test (chromium release assay) of peptide-induced killer T cells against PK-8). Details: killer T cells from breast cancer patients induced with the peptide; PK-8 HLA-A2 negative, FOXM1 positive.
For GLMDLSTTPL [FOXM1 640-649, GLMDLSTTPL], the “cytotoxic activity against PK-8 cells” value was “did not show cytotoxic activity”. With SLVLQPSVKV [FOXM1 373-382, SLVLQPSVKV] the “cytotoxic activity against PK-8 cells” value was “did not show cytotoxic activity”. For YLVPIQFPV [FOXM1 362-370, YLVPIQFPV], the “cytotoxic activity against PK-8 cells” value was “did not show cytotoxic activity”.

What follows are sequences tested on panc-1 cells (assay: Cytotoxicity test (chromium release assay) of peptide-induced killer T cells against panc-1). Details: chromium release assay; panc-1 (HLA-A2 positive) versus PK-8 (HLA-A2 negative).
For GLMDLSTTPL [FOXM1 640-649, GLMDLSTTPL], the “HLA-A2 restricted and FOXM1-specific cytotoxic activity of induced killer T cells” value was “HLA-A2 restricted and FOXM1-specific cytotoxic activity was observed”. In the case of SLVLQPSVKV [FOXM1 373-382, SLVLQPSVKV], the “HLA-A2 restricted and FOXM1-specific cytotoxic activity of induced killer T cells” value is reported as “HLA-A2 restricted and FOXM1-specific cytotoxic activity was observed”. In the case of YLVPIQFPV [FOXM1 362-370, YLVPIQFPV], the “HLA-A2 restricted and FOXM1-specific cytotoxic activity of induced killer T cells” value is reported as “HLA-A2 restricted and FOXM1-specific cytotoxic activity was observed”.

Same assay, conditions: killer T cells from breast cancer patients induced with the peptide; panc-1 HLA-A2 positive, FOXM1-expressing
In the case of GLMDLSTTPL [FOXM1 640-649, GLMDLSTTPL], the “cytotoxic activity against panc-1 cells” value is reported as “strong cytotoxic activity”. With SLVLQPSVKV [FOXM1 373-382, SLVLQPSVKV] the “cytotoxic activity against panc-1 cells” value was “strong cytotoxic activity”. YLVPIQFPV [FOXM1 362-370, YLVPIQFPV] was tested, and the “cytotoxic activity against panc-1 cells” value was “strong cytotoxic activity”.
